Laboratory results taken from US20030138864A1, “Method for identifying an enzyme to design anti-cancer compounds” (priority 2001, published 2003).
Like-named read-outs stand apart in the source and are kept apart here.

Tests used:
[1] = tested on: HCT116: human colon cancer cell line; assay: Growth inhibition (cytotoxicity, WST-8) of HCT116 cells expressing only a low level of microsomal dipeptidase; type: cell-based; settings: Homo sapiens, HCT-116, drug exposure time, read-out: Cytotoxicity (IC50 in nM) HCT116
Description: The activation of the compounds is mediated by microsomal dipeptidase. The inhibitory activities of the compounds is determined against growth of the cells expressing a low level of microsomal dipeptidase, those expressing a high level of microsomal dipeptidase, and granulocyte progenitors that are expanded ex vivo. […] A stable transfectant, HCT116/S5, into which the human microsomal dipeptidase cDNA (herafter called MDP) connected to the CMV promoter was transfected, is used as the cells expressing a high level of microsomal dipeptidase. […] HCT116, HCT116/S5, and granulocyte porogenitors are cultured in the absence and presence of the drugs. […] The IC50 values are determined and compared among HCT116, HCT116/S5, and granulocyte porogenitors.
Transfection of the DNA was carried out by using TransIT-LT2 (PanVera, Madison, USA, Calatog No. MIR2320) according to the manufacturer's instruction. […] The cells that grew in the presence of 1 mg/ml G418 were collected and cultivated in MaCoy5A medium.
By using 96-multi well plates, approximately 2×10^3 cells per well of the HCT116 bearing pRC/CMV and HCT116S5 carrying pRC/CMV-MDP were cultured in 200 μl of McCoy5A medium supplemented with 10% FBS in the presence or absence of the indicated concentrations of the drugs at 37° C. under 5% CO2 in humidified air. The cells were exposed to drugs for 24 hr (taxol, camptothecins and their prodrugs) or 96 hr (DMDC and its compounds). When the drug exposure time to the cells was 24 hr, culture medium containing drugs were removed, and the cells were washed and suspended in the fresh medium without drugs and further cultured at 37° C. under 5% CO2 in humidified air for the indicated days. […] To examine the effects of drugs on granulocyte progenitors, the granulocyte progenitors, which were expanded on a monolayer of MS-5 for 7 days, were collected and washed with RPMI1640 medium. Approximately 5000 cells were suspended in 200 μl of RPMI medium supplemented with 10% FBS and 50 ng/ml of G-CSF in the presence or absence of drugs and cultured in the presence of drugs for 24 hr (taxol, camptothecins and their prodrugs) or 7 days (DMDC and its prodrug) at 37° C. under 5% CO2 in humidified air. When the exposure time of drugs to the cells was 24 hr, the drugs were removed at 24 hr after addition of drugs by washing the cells with the above medium, and the cells were further cultured for 6 days in the same medium without drugs.

[2] = tested on: HCT116/S5: HCT116 transfected with the human microsomal dipeptidase cDNA; assay: Growth inhibition (cytotoxicity, WST-8) of HCT116/S5 cells expressing a high level of microsomal dipeptidase; type: cell-based; settings: for Growth inhibition compared among HCT116, HCT116/S5 and granulocyte progenitor cells: HCT116/S5 (high microsomal dipeptidase) versus HCT116 and granulocyte progenitor cells (very little activity); for IC50: Homo sapiens, HCT-116, drug exposure time, read-out: Cytotoxicity (IC50 in nM) HCT116/S5
Description: (§1) The activation of the compounds is mediated by microsomal dipeptidase. The inhibitory activities of the compounds is determined against growth of the cells expressing a low level of microsomal dipeptidase, those expressing a high level of microsomal dipeptidase, and granulocyte progenitors that are expanded ex vivo. The human colon cancer cell line, HCT116 (American Type Culture Collection No. CCL-247), and granulocyte progenitors are used as the cells expressing only a low level of microsomal dipeptidase. A stable transfectant, HCT116/S5, into which the human microsomal dipeptidase cDNA (herafter called MDP) connected to the CMV promoter was transfected, is used as the cells expressing a high level of microsomal dipeptidase. The dipeptidase cDNA (Satoh et al. Biotechnol. Prog. 10 (2), 134-140 (1994)) and other references) and the cloning procedures as mentioned are known in the art. HCT116, HCT116/S5, and granulocyte porogenitors are cultured in the absence and presence of the drugs. […] The IC50 values are determined and compared among HCT116, HCT116/S5, and granulocyte porogenitors. Although time duration of the exposure of the cells to the drugs varies depending on the cells and drugs, it can be 24 hr, 96 or 168 hr.
Transfection of the DNA was carried out by using TransIT-LT2 (PanVera, Madison, USA, Calatog No. MIR2320) according to the manufacturer's instruction. The resulting transfectants were cultivated in MaCoy5A medium (Sigma, St Louis, USA, Catalog No. M8403) supplemented with 10% (v/v) fetal bovine serum and 1 mg/ml of geneticin disulfate (Wako, Osaka, Japan, Catalog No. 535-24624). The cells that grew in the presence of 1 mg/ml G418 were collected and cultivated in MaCoy5A medium.
By using 96-multi well plates, approximately 2×10^3 cells per well of the HCT116 bearing pRC/CMV and HCT116S5 carrying pRC/CMV-MDP were cultured in 200 μl of McCoy5A medium supplemented with 10% FBS in the presence or absence of the indicated concentrations of the drugs at 37° C. under 5% CO2 in humidified air. The cells were exposed to drugs for 24 hr (taxol, camptothecins and their prodrugs) or 96 hr (DMDC and its compounds). When the drug exposure time to the cells was 24 hr, culture medium containing drugs were removed, and the cells were washed and suspended in the fresh medium without drugs and further cultured at 37° C. under 5% CO2 in humidified air for the indicated days. Then, 10 μl of WST-8 (Cell Counting Kit-8, Wako, Osaka, Japan, Catalog No.343-07623) were added to the cultures, and the cells were further incubated at 37° C. for 1 or 2 hr. Cell growth inhibition was calculated as IC50 values according to optical densities at 450 nm and at 655 nm. To examine the effects of drugs on granulocyte progenitors, the granulocyte progenitors, which were expanded on a monolayer of MS-5 for 7 days, were collected and washed with RPMI1640 medium. Approximately 5000 cells were suspended in 200 μl of RPMI medium supplemented with 10% FBS and 50 ng/ml of G-CSF in the presence or absence of drugs and cultured in the presence of drugs for 24 hr (taxol, camptothecins and their prodrugs) or 7 days (DMDC and its prodrug) at 37° C. under 5% CO2 in humidified air. When the exposure time of drugs to the cells was 24 hr, the drugs were removed at 24 hr after addition of drugs by washing the cells with the above medium, and the cells were further cultured for 6 days in the same medium without drugs. Therafter, 20 μl of WST-1 (Roche Diagnostics, Mannheim, Germany, Catalog No. 1644807) were added to the cultures, and the cells were further incubated at 37° C. for 6 hr. Cell growth inhibition was calculated as IC50 values according to optical densities at 450 nm and at 655 nm.

[3] = Growth inhibition (cytotoxicity, WST-1) of granulocyte progenitors expanded ex vivo (CFU-GM); type: cell-based, human; settings: human, drug exposure time; for IC50 at 24 h: then cultured for 6 days without drugs
Description: as §1
CD34-positive mononuclear cells derived from the human umbilical cord blood and bone marrow (Veritas Co, Tokyo, Japan, Catalog No.CB009F, ABM019F) were cultured on a confluent monolayer of MS5 (Itoh, K., et al. Reproducible establishment of hematopoietic supportive stromal cells from murine bone marrow. Exp. Hematol. 17, 145-153 (1989)). Mouse stromal cell lines in alpha MEM medium (Life Technologies, Gaithersburg, USA, Catalog No.12571-0063) supplemented with 10% (v/v) horse serum (HS) (Stem Cell Technologies, Vancouver, Canada, Catalog No. 06750), 10% (v/v) fetal bovine serum (FBS) (Stem Cell Technologies, Vancouver, Canada, Catalog No.06450), 50 ng/ml Flt3 ligand (PeproTec EC., London, UK., Catalog No. 300-19), 100 ng/ml SCF (PeproTech EC, London, UK., Catalog No. 300-07), and 50 ng/ml TPO (PeproTech EC, London, England, Catalog No. 300-18) at 37° C. under 5% CO2 in humidified air. Floating hematopoietic cells were collected and stained by monoclonal antibodies against PerCP-anti-CD34 (BD pharMingen, San Diego, USA, Catalog No.340430), PE-anti-CD13 (BD pharMingen, San Diego, USA, Catalog No. 30525X) and FlTC-anti-15(BD pharMingen, SanDiego, USA, Catalog No. PM30525X). Five microlitter of each antibody was added to a […] of cell suspension and incubated at 4° C. for 25 min. After washing with PBS containing 10% (v/v) FCS, the expression of CD antigens were detected by using FACSCalibur (Becton Dickinson, Franklin Lakes, N.J., USA) according to the FACSCalibur Traing mannual (FACStation ver1.1. Becton Dickinson, Franklin Lakes, N.J., USA.). […]

[4] = 24 hr, then drug removed and cells cultured further

SMILES: CC(=O)O[C@H]1C(=O)[C@@]2(C)[C@H]([C@H](OC(=O)c3ccccc3)[C@]3(O)C[C@H](OC(=O)[C@H](O)[C@@H](NC(=O)c4ccccc4)c4ccccc4)C(C)=C1C3(C)C)[C@]1(OC(C)=O)CO[C@@H]1C[C@@H]2O (relative stereo) [Paclitaxel, [2aR-[2aα,4β,4aβ,6β,9α(αR*,βS*),11α,12α,12aα,12bα]]-β-(benzoylamino)-α-hydroxybenzenepropanoic acid 6,12b-bis(acetyloxy)-12-(benzoyloxy)-2a,3,4,4a,5,6,9,10,11,12,12a,12b-dodecahydro-4,11-dihydroxy-4a,8,13,13-tetramethyl-5-oxo-7,11-methano-1H-cyclodeca[3,4]benz[1,2-b]oxet-9-yl ester, reference compound]
- IC50 [1, 4]: 2.5 nM
- Growth inhibition compared among HCT116, HCT116/S5 and granulocyte progenitor cells [2]: not significantly different
- IC50 at 24 h [3]: 16 nM

SMILES: CC[C@@]1(O)C(=O)OCc2c1cc1n(c2=O)Cc2cc3ccccc3nc2-1 [Camptothecin, 4(S)-ethyl-4-hydroxy-1H-pyrano[3′,4′:6,7]indolizino[1,2-b]quinoline-3,14(4H,12H)-dione, reference compound]
- IC50 [1, 4]: 19 nM
- Growth inhibition compared among HCT116, HCT116/S5 and granulocyte progenitor cells [2]: not significantly different
- IC50 [2, 4]: 5.6 nM
- IC50 at 24 h [3]: 6.1 nM

SMILES: C=C1[C@H](n2ccc(N)nc2=O)O[C@H](CO)[C@H]1O [DMDC, 2′-deoxy-2′-methylidenecytidine, reference compound]
- IC50 ([1]; 96 hr): 0.2 nM
- Growth inhibition compared among HCT116, HCT116/S5 and granulocyte progenitor cells [2]: not significantly different
- IC50 ([2]; 96 hr): 0.3 nM
- IC50 at 168 h ([3]; 168 hr (7 days)): 0.07 nM
